# Assay results as given in patent US12454529B2, “Piperazine cyclic ureas” (SIRONAX LTD., priority 2020, dated 2025).
# Tested on: HT-29 cells
# Test: HT-29 cell necrosis/necroptosis inhibition (TNF-α + SMAC mimetic + zVAD-FMK; CellTiter-Glo cell viability)
# Format: cell-based
# Details: Homo sapiens, HT-29, 20 h, read-out: EC50 (Cell activity; Necrosis/Necroptosis Inhibitory Activity, Compounds 1-142)
# Protocol: Compounds 1-319 (denoted as Compound Nos. 1 through 319 in Table 3 and 4) of the disclosure were tested for binding and cellular RIP1 inhibitory activity following the experimental procedures described below.
# • Cell line: HT-29 (ATCC® HTB-38™) • Culture medium: McCOY's 5A, Gibco, Cat No. 16600-082 • FBS, Gibco, Cat No. 10099-141C • Trypsin: Gibco, Cat No. 25200-056 • DMSO: Sigma, Cat No. 67-68-5, 1L • Assay plate: Corning #3903 • Compound dilution plate: Corning #3357 • Inducers: TNFα, GenScript, Cat No. Z01001-50, • SmacM, Cat. No., HY-15989, MedChemExpress (MCE) • Z_VAD FMK, TargetMol, T6013 • Cell Titer-Glo® Luminescent Cell Viability Assay Kit: Promega, Cat No. G7573 • EnVision: PerkinElmer, 2105-0010 Methods Cell Seeding
# 1. HT-29 cells were checked every day to make sure that they were healthy and growing as expected. They were subjected to sub-culturing when they were approximately 80% confluent.
# 2. The culture medium, McCOY's 5A medium (Gibco, Cat No. 16600-082) with 10% fetal bovine serum or FBS (Gibco, Cat No. 10099-141C), was pre-warmed in a 37° C. water bath for at least 30 min.
# 3. When the cells had reached a desired level of confluency of 80% in a T75 flask, the medium was aspirated, and the cells were washed with warm phosphate buffered saline or PBS two times.
# 4. 2-3 ml fresh warm trypsin (Gibco, Cat No. 25200-056) solution was added to the washed cells. The flask with the cells was transferred to a 37° C. incubator.
# 5. After 5 minutes, the side of the flask was tapped, and the flask was examined under a microscope for detachment of the cells to the flask. If necessary, the cells were kept in the incubator for an additional 5-10 minutes, with occasional tapping, until lifting was complete.
# 6. The trypsin reaction was neutralized by transferring 6-9 ml cell culture medium to sterile 15 ml conical tubes, and by centrifuging the cell culture at 300×g for 7 minutes to pellet the cells (supernatant decanted).
# 7. The cells were resuspended in fresh cell culture medium and the cell counting was performed using a hemocytometer.
# 8. 100 μl of the resuspended cell culture medium containing ˜5,000 cells were transferred into each well of the sterile 96-well cell culture plate (Corning 3903) and cultured overnight at 37° C. with 5% CO2.
# Compound Titration and Treatment
# 1. All test compounds were dissolved in DMSO (Dimethyl sulfoxide) to create a 20 mM stock.
# 2. 3 μl of each compound 20 mM stock was mixed with 27 μl DMSO, and the compound solution was further diluted at a titration ratio of 1:3 (20 μl compound solution+40 μl DMSO) till the 10 points end.
# 3. All culture medium was removed from assay plates filled with HT-29 cell cultures. The cells were then washed with 1 PBS, and resuspended in fresh, FBS-free McCOY's 5A medium containing a cocktail of TNF-α (10 ng/ml), a SMAC mimetic compound (6 μM) and Z-VAD-fluoromethylketone or zVAD-FMK (10 μM) to stimulate the HT-29 cells to increase RIP1 kinase levels and necroptosis.
# 4. 0.5 μL of the diluted compound solution was added to the corresponding 96-well assay plates.
# 5. The assay plates were incubated for 20 hours at 37° C. with 5% CO2.
# 1. The CellTiter-Glo® Luminescent Cell Viability Assay was employed to detect the ATP levels of viable HT-29 cells.
# 2. The CellTiter-Glo® buffer and the lyophilized substrate were equilibrated to room temperature prior to use.
# 3. The CellTiter-Glo® substrate was resuspended with CellTiter-Glo® buffer, then mixed by gently vortexing to obtain a homogeneous solution.
# 4. 20 μl the enzyme/substrate mixture was transferred by multi-channel pipetting into 96-well assay plates.
# 5. The assay plates were placed on an orbital shaker and the contents were shaken for 3 minutes to induce cell lysis.
# 6. The assay plates were incubated at room temperature for 10 minutes to stabilize the luminescent signal.
# 7. The luminescence signals were read and recorded with EnVision.
# 8. The geometric mean EC50 values were calculated from 10 points response dose with duplicates. In
row,Compound,EC50
1,"CCOC(=O)c1n[nH]c(C)c1-c1nc(N2CCN(C(=O)N3N=CC[C@H]3c3cc(F)cc(C#N)c3)CC2)ncc1F [Compound 73, ethyl (S)-4-(2-(4-(5-(3-cyano-5-fluorophenyl)-4,5-dihydro-1H-pyrazole-1-carbonyl)piperazin-1-yl)-5-fluoropyrimidin-4-yl)-5-methyl-1H-pyrazole-3-carboxylat]",0.1 to 100 nM
2,"Cc1nnnn1-c1ccnc(N2CCN(C(=O)N3N=CC[C@H]3c3cncc(F)c3)CC2)n1 [Compound 26, (S)-(5-(5-fluoropyridin-3-yl)-4,5-dihydro-1H-pyrazol-1-yl)(4-(4-(5-methyl-1H-tetrazol-1-yl)pyrimidin-2-yl)piperazin-1-yl)methanone]",0.1 to 100 nM

# Same assay, conditions: Homo sapiens; HT-29 cells, TNF-α 10 ng/ml + SMAC mimetic 6 μM + zVAD-FMK 10 μM, 20 hours; geometric mean, 10 points in duplicate; read-out: EC50 (Cell activity; Necrosis/Necroptosis Inhibitory Activity, Compounds 1-142)
row,Compound,EC50
1,"Cc1cnn(C)c1-c1cc(N2CCN(C(=O)N3N=CC[C@H]3c3cc(F)cc(F)c3)CC2)ncc1F [Compound 114, (S)-(5-(3,5-difluorophenyl)-4,5-dihydro-1H-pyrazol-1-yl)(4-(4-(1,4-dimethyl-1H-pyrazol-5-yl)-5-fluoropyridin-2-yl)piperazin-1-yl)methanone]",0.1 to 100 nM
2,"O=C(N1CCN(c2ncc(F)c(-c3ccc(O)nc3)n2)CC1)N1N=CC[C@H]1c1cc(F)cc(F)c1 [Compound 25, (S)-(5-(3,5-difluorophenyl)-4,5-dihydro-1H-pyrazol-1-yl)(4-(5-fluoro-4-(6-hydroxypyridin-3-yl)pyrimidin-2-yl)piperazin-1-yl)methanone]",0.1 to 100 nM
3,"Cc1nc(C)n(-c2ccnc(N3CCN(C(=O)N4N=CC[C@H]4c4cc(F)cc(F)c4)CC3)n2)n1 [Compound 100, (S)-(5-(3,5-difluorophenyl)-4,5-dihydro-1H-pyrazol-1-yl)(4-(4-(3,5-dimethyl-1H-1,2,4-triazol-1-yl)pyrimidin-2-yl)piperazin-1-yl)methanone]",0.1 to 100 nM
4,"Cc1nn(-c2nc(N3CCN(C(=O)N4N=CC[C@H]4c4cc(F)cc(F)c4)CC3)ncc2F)c(=O)n1C [Compound 95, (S)-2-(2-(4-(5-(3,5-difluorophenyl)-4,5-dihydro-1H-pyrazole-1-carbonyl)piperazin-1-yl)-5-fluoropyrimidin-4-yl)-4,5-dimethyl-2,4-dihydro-3H-1,2,4-triazol-3-one]",0.1 to 100 nM
5,"N#Cc1cc(F)cc([C@@H]2CC=NN2C(=O)N2CCN(c3ncc(F)c(-n4cnc(C#N)n4)n3)CC2)c1 [Compound 125, (S)-1-(2-(4-(5-(3-cyano-5-fluorophenyl)-4,5-dihydro-1H-pyrazole-1-carbonyl)piperazin-1-yl)-5-fluoropyrimidin-4-yl)-1H-1,2,4-triazole-3-carbonitrile]",0.1 to 100 nM
6,"O=C(N1CCN(c2nccc(-c3cc[nH]n3)n2)CC1)N1N=CC[C@H]1c1cncc(F)c1 [Compound 36, (S)-(4-(4-(1H-pyrazol-3-yl)pyrimidin-2-yl)piperazin-1-yl)(5-(5-fluoropyridin-3-yl)-4,5-dihydro-1H-pyrazol-1-yl)methanone]",0.1 to 100 nM
7,"Cc1nnn(C)c1-c1nc(N2CCN(C(=O)N3N=CC[C@H]3c3cc(F)cc(C#N)c3)CC2)ncc1F [Compound 70, (S)-3-(1-(4-(4-(1,4-dimethyl-1H-1,2,3-triazol-5-yl)-5-fluoropyrimidin-2-yl)piperazine-1-carbonyl)-4,5-dihydro-1H-pyrazol-5-yl)-5-fluorobenzonitrile]",0.1 to 100 nM

# Same assay, conditions: Homo sapiens; HT-29 cells, TNF-α 10 ng/ml + SMAC mimetic 6 μM + zVAD-FMK 10 μM, 20 hours; geometric mean, 10 points in duplicate; read-out: EC50 (Cell activity; Necrosis/Necroptosis Inhibitory Activity, Compounds 143-323)
row,Compound,EC50
1,"Cc1cnn(C)c1-c1ncc(F)c(N2CCN(C(=O)N3N=CCC3c3ncccc3Cl)CC2)n1 (stereo not shown) [Compound 261, (5-(3-chloropyridin-2-yl)-4,5-dihydro-1H-pyrazol-1-yl)(4-(2-(1,4-dimethyl-1H-pyrazol-5-yl)-5-fluoropyrimidin-4-yl)piperazin-1-yl)methanone]",0.1 to 100 nM
2,"Cc1nn(-c2ccnc(N3CCN(C(=O)N4N=CC[C@H]4c4cncc(F)c4)CC3)n2)c(C)c1C#N [Compound 283, (S)-1-(2-(4-(5-(5-fluoropyridin-3-yl)-4,5-dihydro-1H-pyrazole-1-carbonyl)piperazin-1-yl)pyrimidin-4-yl)-3,5-dimethyl-1H-pyrazole-4-carbonitrile]",0.1 to 100 nM
3,"Cc1nc(C)n(-c2nc(N3CCN(C(=O)N4N=CC[C@@H]4c4cc(F)cc(F)c4F)CC3)ncc2F)n1 [Compound 265, (R)-(4-(4-(3,5-dimethyl-1H-1,2,4-triazol-1-yl)-5-fluoropyrimidin-2-yl)piperazin-1-yl)(5-(2,3,5-trifluorophenyl)-4,5-dihydro-1H-pyrazol-1-yl)methanone]",100 to 1000 nM
4,"Cn1nc(CO)nc1-c1nc(N2CCN(C(=O)N3N=CC[C@H]3c3cncc(F)c3)CC2)ncc1F [Compound 174, (S)-(4-(5-fluoro-4-(3-(hydroxymethyl)-1-methyl-1H-1,2,4-triazol-5-yl)pyrimidin-2-yl)piperazin-1-yl)(5-(5-fluoropyridin-3-yl)-4,5-dihydro-1H-pyrazol-1-yl)methanone]",0.1 to 100 nM
5,"Cc1nc(C)n(-c2nc(N3CCN(C(=O)N4N=CC[C@H]4c4cc(F)cc(C#N)c4)CC3)c(F)cc2F)n1 [Compound 233, (S)-3-(1-(4-(6-(3,5-dimethyl-1H-1,2,4-triazol-1-yl)-3,5-difluoropyridin-2-yl)piperazine-1-carbonyl)-4,5-dihydro-1H-pyrazol-5-yl)-5-fluorobenzonitrile]",0.1 to 100 nM
6,"Cc1nc(C2CC=NN2C(=O)N2CCN(c3nc(-c4c(C)cnn4C)ccc3F)CC2)cs1 (stereo not shown) [Compound 298, (4-(6-(1,4-dimethyl-1H-pyrazol-5-yl)-3-fluoropyridin-2-yl)piperazin-1-yl)(5-(2-methylthiazol-4-yl)-4,5-dihydro-1H-pyrazol-1-yl)methanone]",0.1 to 100 nM
7,"Cc1c(-c2nc(N3CCN(C(=O)N4N=CC[C@H]4c4cc(F)cc(F)c4)CC3)ncc2F)c(C(F)(F)F)nn1C [Compound 198, (S)-(5-(3,5-difluorophenyl)-4,5-dihydro-1H-pyrazol-1-yl)(4-(4-(1,5-dimethyl-3-(trifluoromethyl)-1H-pyrazol-4-yl)-5-fluoropyrimidin-2-yl)piperazin-1-yl)methanone]",0.1 to 100 nM
8,"Cc1cnc(C2CC=NN2C(=O)N2CCN(c3nc(-c4c(C)cnn4C)ncc3F)CC2)s1 (stereo not shown) [Compound 145, (4-(2-(1,4-dimethyl-1H-pyrazol-5-yl)-5-fluoropyrimidin-4-yl)piperazin-1-yl)(5-(5-methylthiazol-2-yl)-4,5-dihydro-1H-pyrazol-1-yl)methanone]",0.1 to 100 nM
9,"O=C(N1CCN(c2ncc(F)c(-n3cnc(C(F)(F)F)n3)n2)CC1)N1N=CC[C@H]1c1cccc(F)c1 [Compound 313, (S)-(4-(5-fluoro-4-(3-(trifluoromethyl)-1H-1,2,4-triazol-1-yl)pyrimidin-2-yl)piperazin-1-yl)(5-(3-fluorophenyl)-4,5-dihydro-1H-pyrazol-1-yl)methanone]",0.1 to 100 nM
10,"Cn1nc(CO)nc1-c1ccnc(N2CCN(C(=O)N3N=CC[C@H]3c3cc(F)cc(C#N)c3)CC2)n1 [Compound 171, (S)-3-fluoro-5-(1-(4-(4-(3-(hydroxymethyl)-1-methyl-1H-1,2,4-triazol-5-yl)pyrimidin-2-yl)piperazine-1-carbonyl)-4,5-dihydro-1H-pyrazol-5-yl)benzonitrile]",0.1 to 100 nM
